The values below come from patent US20230203059A1, “MACROCYCLIC JAK INHIBITOR AND USES THEREOF” (Biopolar Hongye (Guangdong) Pharmaceutical Co. Ltd., priority 2020, published 2023).

Common to all, as to type: biochemical
The target of one assay is JAK1 (Homo sapiens, UniProt P23458). Description: JAK kinase activity, homogeneous time-resolved fluorescence (JAK1 reaction system). Conditions: ATP 2 μM, JAK1 protein 0.2 ng/μL; read-out: JAK 1 activity. In a few lines: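 HTRF assay: JAK1 (0.2 ng/μL) with 2 μM ATP and substrate in 50 mM Hepes pH 7.0, 5 mM MgCl2, 1 mM DTT, 1 h. Phospho-substrate antibody/XL-615 detection with EDTA; 665/615 nm ratio, excitation 320 nm. IC50 from Hill-type fit against no-enzyme and no-compound controls.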

The target of another assay is JAK2 (Homo sapiens, UniProt O60674). Description: JAK kinase activity, homogeneous time-resolved fluorescence (JAK2 reaction system). Particulars: ATP 2 μM, JAK2 protein 0.01 ng/μL. In a few lines: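 IC50 derived by Hill-equation fit of the 665/615 nm time-resolved fluorescence ratio after EDTA-containing detection mix with anti-phosphosubstrate antibody. Preceding 1 h reaction contained 2 μM ATP, 0.01 ng/μL JAK2, substrate, 50 mM Hepes pH 7.0, 5 mM MgCl2, 1 mM DTT.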

A further assay has as its target T1, JAK3 (Homo sapiens, UniProt P52333).
T1 sequence (P52333 1-1124): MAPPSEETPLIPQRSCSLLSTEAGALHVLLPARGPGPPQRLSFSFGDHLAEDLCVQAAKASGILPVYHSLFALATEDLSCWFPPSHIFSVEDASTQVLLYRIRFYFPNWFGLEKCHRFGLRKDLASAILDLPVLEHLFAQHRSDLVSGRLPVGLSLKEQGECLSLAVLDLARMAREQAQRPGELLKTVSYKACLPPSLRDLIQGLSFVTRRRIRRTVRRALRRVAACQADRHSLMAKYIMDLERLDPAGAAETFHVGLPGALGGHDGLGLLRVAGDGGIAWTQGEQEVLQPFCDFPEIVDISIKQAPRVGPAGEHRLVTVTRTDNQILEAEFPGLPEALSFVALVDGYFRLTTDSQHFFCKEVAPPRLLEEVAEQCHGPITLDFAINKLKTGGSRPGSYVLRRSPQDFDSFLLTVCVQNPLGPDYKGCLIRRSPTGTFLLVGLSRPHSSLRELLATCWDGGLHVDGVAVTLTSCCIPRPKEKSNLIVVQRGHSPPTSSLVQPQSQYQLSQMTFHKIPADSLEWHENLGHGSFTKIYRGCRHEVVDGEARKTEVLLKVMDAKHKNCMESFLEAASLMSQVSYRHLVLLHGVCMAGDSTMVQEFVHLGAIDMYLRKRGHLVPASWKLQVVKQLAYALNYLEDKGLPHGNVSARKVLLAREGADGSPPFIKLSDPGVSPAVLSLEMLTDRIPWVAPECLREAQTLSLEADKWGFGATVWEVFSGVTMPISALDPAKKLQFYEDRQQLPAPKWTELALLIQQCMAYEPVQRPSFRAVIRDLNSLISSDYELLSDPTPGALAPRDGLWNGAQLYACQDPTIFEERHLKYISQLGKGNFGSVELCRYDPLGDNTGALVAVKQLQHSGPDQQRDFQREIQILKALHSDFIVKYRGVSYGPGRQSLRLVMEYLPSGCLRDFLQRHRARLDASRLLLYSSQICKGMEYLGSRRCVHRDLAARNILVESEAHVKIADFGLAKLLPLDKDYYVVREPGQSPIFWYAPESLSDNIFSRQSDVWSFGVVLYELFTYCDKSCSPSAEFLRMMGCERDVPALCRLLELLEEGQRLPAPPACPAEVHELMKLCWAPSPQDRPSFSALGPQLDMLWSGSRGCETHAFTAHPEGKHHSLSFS
Description: JAK kinase activity, homogeneous time-resolved fluorescence (JAK3 reaction system). Conditions: ATP 2 μM, JAK3 protein 0.04 ng/μL; read-out: JAK 3 activity.

In a further assay the target is TYK2 (Homo sapiens, UniProt P29597). Description: JAK kinase activity, homogeneous time-resolved fluorescence (TYK2 reaction system). Particulars: ATP 2 μM, TYK2 protein 0.2 ng/μL; read-out: TYK 2 activity. In a few lines:
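Activity read as the 665 nm/615 nm ratio after adding EDTA-containing detection mix with anti-phospho-substrate antibody and XL-615. Beforehand, 0.2 ng/μL TYK2, 2 μM ATP, substrate and compound reacted 1 h in pH 7.0 Hepes buffer with MgCl2 and DTT. IC50 fitted with Hill-slope equation.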

TYK2, sequence (P29597 whole entry): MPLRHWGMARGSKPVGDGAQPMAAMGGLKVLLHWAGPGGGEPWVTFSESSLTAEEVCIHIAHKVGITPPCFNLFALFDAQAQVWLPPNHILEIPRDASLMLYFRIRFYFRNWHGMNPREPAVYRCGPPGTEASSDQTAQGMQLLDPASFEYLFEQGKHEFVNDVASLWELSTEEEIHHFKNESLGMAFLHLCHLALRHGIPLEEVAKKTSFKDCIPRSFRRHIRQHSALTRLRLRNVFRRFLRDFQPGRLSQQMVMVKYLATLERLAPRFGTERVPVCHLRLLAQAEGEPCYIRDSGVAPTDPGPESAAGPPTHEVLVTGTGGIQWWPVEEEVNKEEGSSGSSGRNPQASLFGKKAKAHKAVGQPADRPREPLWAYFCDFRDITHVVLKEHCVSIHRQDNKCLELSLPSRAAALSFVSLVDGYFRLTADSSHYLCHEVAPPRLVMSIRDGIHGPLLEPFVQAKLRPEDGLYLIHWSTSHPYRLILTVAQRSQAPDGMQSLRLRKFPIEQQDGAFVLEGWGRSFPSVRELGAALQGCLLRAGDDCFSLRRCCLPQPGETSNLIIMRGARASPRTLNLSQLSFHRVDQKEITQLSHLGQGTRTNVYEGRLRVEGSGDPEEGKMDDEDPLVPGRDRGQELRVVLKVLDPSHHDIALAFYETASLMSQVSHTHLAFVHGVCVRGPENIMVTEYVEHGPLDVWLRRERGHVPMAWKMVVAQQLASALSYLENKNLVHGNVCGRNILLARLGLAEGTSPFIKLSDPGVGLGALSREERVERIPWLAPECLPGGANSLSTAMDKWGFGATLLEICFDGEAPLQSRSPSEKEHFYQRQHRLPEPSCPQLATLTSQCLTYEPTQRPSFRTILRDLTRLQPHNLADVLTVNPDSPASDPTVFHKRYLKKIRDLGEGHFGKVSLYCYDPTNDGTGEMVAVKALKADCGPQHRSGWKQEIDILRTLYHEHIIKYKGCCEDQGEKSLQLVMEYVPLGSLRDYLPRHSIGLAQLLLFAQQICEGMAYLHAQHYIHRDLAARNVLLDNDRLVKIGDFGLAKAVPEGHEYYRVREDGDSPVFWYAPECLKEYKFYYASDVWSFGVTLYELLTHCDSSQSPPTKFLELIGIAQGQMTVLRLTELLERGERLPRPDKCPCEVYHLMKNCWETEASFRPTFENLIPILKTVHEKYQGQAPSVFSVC
JAK2, sequence (O60674 whole entry): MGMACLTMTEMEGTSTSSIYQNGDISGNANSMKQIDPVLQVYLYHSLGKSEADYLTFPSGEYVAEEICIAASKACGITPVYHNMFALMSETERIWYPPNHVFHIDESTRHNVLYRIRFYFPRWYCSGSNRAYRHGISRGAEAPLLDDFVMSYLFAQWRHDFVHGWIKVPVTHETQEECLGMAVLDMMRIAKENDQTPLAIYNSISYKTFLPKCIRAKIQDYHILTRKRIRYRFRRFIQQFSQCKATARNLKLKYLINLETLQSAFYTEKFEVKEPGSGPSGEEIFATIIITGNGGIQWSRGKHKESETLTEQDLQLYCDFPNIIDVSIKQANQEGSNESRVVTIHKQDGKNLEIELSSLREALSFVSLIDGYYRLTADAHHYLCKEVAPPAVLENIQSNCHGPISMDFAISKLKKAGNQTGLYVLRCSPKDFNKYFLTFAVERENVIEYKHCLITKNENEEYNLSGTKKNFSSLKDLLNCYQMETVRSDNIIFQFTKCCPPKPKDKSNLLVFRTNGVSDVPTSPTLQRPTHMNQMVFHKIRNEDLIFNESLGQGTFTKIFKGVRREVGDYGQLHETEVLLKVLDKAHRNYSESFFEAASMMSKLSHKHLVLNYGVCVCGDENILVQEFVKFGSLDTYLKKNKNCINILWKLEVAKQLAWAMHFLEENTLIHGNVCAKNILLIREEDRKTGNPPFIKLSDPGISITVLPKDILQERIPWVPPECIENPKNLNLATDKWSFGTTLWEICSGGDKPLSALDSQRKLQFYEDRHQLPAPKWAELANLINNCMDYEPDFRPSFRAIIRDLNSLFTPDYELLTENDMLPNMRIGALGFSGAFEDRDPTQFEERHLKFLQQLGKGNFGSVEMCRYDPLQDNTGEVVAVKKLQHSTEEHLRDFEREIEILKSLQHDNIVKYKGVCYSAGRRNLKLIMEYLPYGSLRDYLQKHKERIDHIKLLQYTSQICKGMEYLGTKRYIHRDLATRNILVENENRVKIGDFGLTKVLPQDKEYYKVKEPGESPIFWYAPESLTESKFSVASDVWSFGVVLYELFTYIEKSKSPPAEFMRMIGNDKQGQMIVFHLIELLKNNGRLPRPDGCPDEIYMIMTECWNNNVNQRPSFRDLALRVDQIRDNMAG
JAK1, sequence (P23458 whole entry): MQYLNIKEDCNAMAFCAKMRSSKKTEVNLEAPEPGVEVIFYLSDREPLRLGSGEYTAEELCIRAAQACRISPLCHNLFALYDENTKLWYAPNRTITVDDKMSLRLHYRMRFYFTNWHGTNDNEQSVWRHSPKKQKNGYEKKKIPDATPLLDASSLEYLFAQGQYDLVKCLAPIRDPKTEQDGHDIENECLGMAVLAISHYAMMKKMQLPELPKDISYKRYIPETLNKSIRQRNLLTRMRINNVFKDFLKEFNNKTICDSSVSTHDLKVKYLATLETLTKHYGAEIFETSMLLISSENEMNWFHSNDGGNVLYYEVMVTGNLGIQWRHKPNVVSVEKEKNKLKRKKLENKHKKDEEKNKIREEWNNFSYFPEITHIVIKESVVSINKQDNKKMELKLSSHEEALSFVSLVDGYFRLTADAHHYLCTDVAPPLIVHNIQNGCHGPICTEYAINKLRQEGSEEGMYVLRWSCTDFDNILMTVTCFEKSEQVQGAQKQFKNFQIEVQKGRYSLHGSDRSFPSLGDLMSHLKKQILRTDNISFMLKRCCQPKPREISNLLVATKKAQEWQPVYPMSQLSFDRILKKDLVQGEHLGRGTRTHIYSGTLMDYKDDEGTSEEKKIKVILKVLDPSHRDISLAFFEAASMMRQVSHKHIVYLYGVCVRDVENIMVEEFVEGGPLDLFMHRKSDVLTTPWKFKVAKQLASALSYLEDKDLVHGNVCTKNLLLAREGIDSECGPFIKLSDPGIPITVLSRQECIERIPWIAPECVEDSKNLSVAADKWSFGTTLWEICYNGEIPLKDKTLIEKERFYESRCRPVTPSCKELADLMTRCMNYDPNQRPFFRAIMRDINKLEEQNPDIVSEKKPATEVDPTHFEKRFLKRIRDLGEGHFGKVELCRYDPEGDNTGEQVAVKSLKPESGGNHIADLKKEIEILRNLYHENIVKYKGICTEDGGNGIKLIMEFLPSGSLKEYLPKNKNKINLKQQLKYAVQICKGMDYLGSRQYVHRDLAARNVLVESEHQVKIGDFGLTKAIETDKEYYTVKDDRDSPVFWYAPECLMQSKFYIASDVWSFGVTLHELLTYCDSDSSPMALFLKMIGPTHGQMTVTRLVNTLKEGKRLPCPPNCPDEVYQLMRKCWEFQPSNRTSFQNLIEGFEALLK

On to `Nc1cc2ccc1-c1ccnc(n1)Nc1cc(cc(N3CCOCC3)c1)COCCCCNC2=O` [Example 52, 1^2-amino-4^5-morpholin-6-oxa-3,11-diaza-2(4,2)-pyrimidina-1(1,4),4(1,3)-dibenzenacyclododecaphan-12-one], for which the IC50 at JAK1 is 101 to 1000 nM; on JAK2, 11 to 100 nM; at JAK3 it was less than 10 nM; on TYK2 it was 101 to 1000 nM.

Regarding `O=C1NCCCCOCc2cccc(c2)Nc2nccc(n2)-c2ccc1cc2[N+](=O)[O-]` [Example 53, 1^2-nitro-6-oxa-3,11-diaza-2(4,2)-py-rimidina-1(1,4),4(1,3)-dibenzenacyclo-dodecaphan-12-one], the IC50 on JAK1 is 1000 to 10000 nM; against JAK2, greater than 10000 nM; at JAK3, 1000 to 10000 nM; at TYK2 it was greater than 10000 nM.

In the case of `Nc1cc2ccc1-c1ccnc(n1)Nc1cccc(c1)COCCCCNC2=O` [Example 54, 1^2-amino-6-oxa-3,11-diaza-2(4,2)-py-rimidina-1(1,4),4(1,3)-dibenzena-cyclododecaphan-12-one], the IC50 was 101 to 1000 nM at JAK1, 101 to 1000 nM at JAK2, 11 to 100 nM at JAK3 and 1000 to 10000 nM at TYK2.

Take `Nc1cc2ccc1-c1ccnc(n1)Nc1ccc(N3CCCCC3)c(c1)COCCCCNC2=O` [Example 55, 1^2-amino-4^4-(piperidin-1-)-6-oxa-3,11-diaza-2(4,2)-pyrimidina-1(1,4),4(1,3)-dibenzenacyclododecaphan-12-one]: the IC50 is 101 to 1000 nM at JAK1, 11 to 100 nM at JAK2, less than 10 nM on JAK3 and 101 to 1000 nM at TYK2.

For `O=C1NCCCCCCOCc2cc(ccc2N2CCOCC2)Nc2nccc(n2)-c2ccc1cc2[N+](=O)[O-]` [Example 56, 1^2-nitro-4^4-morpholin-6-oxa-3,13-di-aza-2(4,2)-pyrimidina-1(1,4),4(1,3)-dibenzenacyclotetradecaphan-14-one], the IC50 was greater than 10000 nM at JAK1, 1000 to 10000 nM against JAK2, 1000 to 10000 nM on JAK3 and greater than 10000 nM at TYK2.

`Nc1cc2ccc1-c1ccnc(n1)Nc1ccc(N3CCOCC3)c(c1)COCCCCCCNC2=O` [Example 57, 1^2-amino-4^4-morpholin-6-oxa-3,13-diaza-2(4,2)-pyrimidina-1(1,4),4(1,3)-dibenzenacyclotetradecaphan-14-one]: the IC50 was in the range of 1000 to 10000 nM on JAK1, 101 to 1000 nM at JAK2, 11 to 100 nM at JAK3 and 101 to 1000 nM at TYK2.

Consider `COc1cnc2nc1-c1ccc(c(F)c1)C(=O)NCCCCOCc1cc(ccc1N1CCOCC1)N2` [Example 58, 1^3-fluoro-2^5-methoxy-4^4-morpholin-6-oxa-3,11-diaza-2(4,2)-pyrimidina-1(1,4),4(1,3)-dibenzenacyclodode-caphan-12-one], for which the IC50 at JAK1 lay in the range of 11 to 100 nM; against JAK2, 11 to 100 nM; on JAK3 it was 11 to 100 nM; at TYK2, 101 to 1000 nM.

For the compound `CN1CCN(c2ccc3cc2COCCCCNC(=O)c2ccc(c([N+](=O)[O-])c2)-c2ccnc(n2)N3)CC1` [Example 59, 1^2-nitro-4^4-(4-methylpiperazin-1-)-6-oxa-3,11-diaza-2(4,2)-pyrimidina-1(1,4),4(1,3)-dibenzenacyclododeca-phan-12-one], the IC50 at JAK1 is 1000 to 10000 nM; against JAK2 it was 1000 to 10000 nM; on JAK3, 101 to 1000 nM; at TYK2, greater than 10000 nM.

For `O=C1NCCCCOCc2cc(ccc2Cl)Nc2nccc(n2)-c2ccc1cc2[N+](=O)[O-]` [Example 60, 1^2-nitro-4^4-chloro-6-oxa-3,11-diaza-2(4,2)-pyrimidina-1(1,4),4(1,3)-di-benzenacyclododecaphan-12-one], the IC50 at JAK1 lay in the range of 101 to 1000 nM; against JAK2 it was 101 to 1000 nM; on JAK3, 101 to 1000 nM; at TYK2, 1000 to 10000 nM.

For `O=C1NCCCCOCc2cc(ccc2OC2CCOCC2)Nc2nccc(n2)-c2ccc1cc2[N+](=O)[O-]` [Example 61, 1^2-nitro-4^4-(2H-tetrahydropyran-4-oxo)-6-oxa-3,11-diaza-2(4,2)-pyrimi-dina-1(1,4),4(1,3)-dibenzenacyclo-dodecaphan-12-one], the IC50 is 1000 to 10000 nM on JAK1, 1000 to 10000 nM against JAK2, 101 to 1000 nM at JAK3 and greater than 10000 nM at TYK2.

Turning to `Nc1cc2ccc1-c1ccnc(n1)Nc1ccc(OC3CCOCC3)c(c1)COCCCCNC2=O` [Example 63, 1^2-amino-4^4-(4-tetrahydropyranoxy)-6-oxa-3,11-diaza-2(4,2)-pyrimidina-1(1,4),4(1,3)-dibenzenacyclo-dodecaphan-12-one], the IC50 on JAK1 is 101 to 1000 nM; on JAK2 it was 11 to 100 nM; on JAK3, less than 10 nM; at TYK2 it was 1000 to 10000 nM.

For the compound `CC(C)Oc1ccc2cc1COCCCCNC(=O)c1ccc(c([N+](=O)[O-])c1)-c1ccnc(n1)N2` [Example 64, 4^4-isopropoxy-1^2-nitro-6-oxa-3,11-diaza-2(4,2)-pyrimidina-1(1,4),4(1,3)-dibenzenacyclododecaphan-12-one], the IC50 at JAK1 was 1000 to 10000 nM; at JAK2, 101 to 1000 nM; on JAK3, 101 to 1000 nM; on TYK2, greater than 10000 nM.

As to `O=C1NCCCCOCc2cc(ccc2N2CCSCC2)Nc2nccc(n2)-c2ccc1cc2[N+](=O)[O-]` [Example 65, 1^2-nitro-4^4-thiomorpholin-6-oxa-3,11-diaza-2(4,2)-pyrimidina-1(1,4),4(1,3)-dibenzenacyclododecaphan-12-one], the IC50 at JAK1, at JAK2, at JAK3 and at TYK2 was 1000 to 10000 nM each time.

For the compound `Nc1cc2ccc1-c1ccnc(n1)Nc1ccc(N3CCSCC3)c(c1)COCCCCNC2=O` [Example 66, 1^2-amino-4-thiomorpholin-6-oxa-3,11-diaza-2(4,2)-pyrimidina-1(1,4),4(1,3)-dibenzenacyclo-dodecaphan-12-one], the IC50 lay in the range of 101 to 1000 nM on JAK1, 11 to 100 nM on JAK2, 11 to 100 nM at JAK3 and 101 to 1000 nM on TYK2.

For the compound `CC(C)Oc1ccc2cc1COCCCCNC(=O)c1ccc(c(N)c1)-c1ccnc(n1)N2` [Example 67, 1^2-amino-4^4-isopropoxy-6-oxa-3,11-diaza-2(4,2)-pyrimidina-1(1,4),4(1,3)-dibenzenacyclododecaphan-12-one], the IC50 on JAK1 is 101 to 1000 nM; at JAK2, 101 to 1000 nM; at JAK3, less than 10 nM; at TYK2, 1000 to 10000 nM.

With `O=C1NCCCCOCc2cc(ccc2F)Nc2nccc(n2)-c2ccc1cc2[N+](=O)[O-]` [Example 68, 4^4-fluoro-1^2-nitro-6-oxa-3,11-diaza-2(4,2)-pyrimidina-1(1,4),4(1,3)-di-benzenacyclododecaphan-12-one], the IC50 on JAK1 was 1000 to 10000 nM; against JAK2, 1000 to 10000 nM; at JAK3, 101 to 1000 nM; on TYK2 it was greater than 10000 nM.

`Nc1cc2ccc1-c1ccnc(n1)Nc1ccc(F)c(c1)COCCCCNC2=O` [Example 69, 1^2-amino-4^4-fluoro-6-oxa-3,11-diaza-2(4,2)-pyrimidina-1(1,4),4(1,3)-di-benzenacyclododecaphan-12-one]: the IC50 on JAK1 lay in the range of 1000 to 10000 nM; against JAK2 it was 101 to 1000 nM; on JAK3, 11 to 100 nM; on TYK2 it was 1000 to 10000 nM.
